According to patent US20200109126A1 (priority 2017, published 2020):
“Also recorded” adds a separate entry of the source.

How the values were obtained:
[1] = molecular target: T1, κOR (Homo sapiens, UniProt P41145); assay: Radioligand binding at κOR (PDSP); conditions: Ki (nM) κOR
T1 construct: NIMH Psychoactive Drug Screening Program (PDSP)

[2] = molecular target: T2, δOR (Homo sapiens, UniProt P41143); assay: Radioligand binding at δOR (PDSP)
T2 construct: NIMH Psychoactive Drug Screening Program (PDSP)
T2 sequence (P41143 whole entry): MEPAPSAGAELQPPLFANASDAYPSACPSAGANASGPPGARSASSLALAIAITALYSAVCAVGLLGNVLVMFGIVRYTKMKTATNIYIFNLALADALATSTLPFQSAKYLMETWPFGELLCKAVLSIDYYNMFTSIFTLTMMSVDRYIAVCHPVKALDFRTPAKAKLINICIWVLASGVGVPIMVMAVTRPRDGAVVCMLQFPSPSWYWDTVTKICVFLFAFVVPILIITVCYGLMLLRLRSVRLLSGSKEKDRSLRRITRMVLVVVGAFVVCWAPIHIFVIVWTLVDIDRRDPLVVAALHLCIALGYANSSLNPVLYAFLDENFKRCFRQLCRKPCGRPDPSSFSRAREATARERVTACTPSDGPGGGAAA

[3] = molecular target: T3, μOR (Homo sapiens, UniProt P35372); assay: cell-based; assay type: cell-based
T3 sequence (P35372 whole entry): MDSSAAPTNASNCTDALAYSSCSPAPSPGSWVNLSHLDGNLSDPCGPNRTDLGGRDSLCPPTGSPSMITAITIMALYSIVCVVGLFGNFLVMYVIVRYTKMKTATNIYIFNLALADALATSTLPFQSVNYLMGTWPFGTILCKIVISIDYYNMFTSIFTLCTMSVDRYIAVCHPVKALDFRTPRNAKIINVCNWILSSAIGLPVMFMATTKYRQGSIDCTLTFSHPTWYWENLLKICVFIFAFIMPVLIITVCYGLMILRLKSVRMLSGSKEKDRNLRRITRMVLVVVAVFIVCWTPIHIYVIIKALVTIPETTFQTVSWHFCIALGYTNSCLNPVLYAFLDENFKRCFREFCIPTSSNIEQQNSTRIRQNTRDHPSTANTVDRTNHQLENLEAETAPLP

[4] = molecular target: T2, δOR; assay: Gi/o Glosensor assay at δOR; assay type: cell-based; conditions: ND = not detectable
[5] = molecular target: T1, κOR; assay: Gi/o Glosensor assay at κOR; assay type: cell-based
[6] = molecular target: T3, μOR; assay: β-arrestin2 recruitment, PathHunter assay; assay type: cell-based
[7] = molecular target: T3, μOR; assay: β-arrestin recruitment at μOR with GRK2 co-expression; assay type: cell-based
[8] = test system: 320 non-olfactory GPCRs; assay: PRESTO-Tango GPCRome β-arrestin recruitment screen for off-target agonism; assay type: cell-based; conditions: 10 μM, hits re-tested in full dose-response
Excerpt: Potential positive receptor hits were defined as those that increase the relative luminescence value by two fold. […] A number of false positive hits were discounted by this approach.

[9] = molecular target: T3, μOR; assay: Receptor internalization (PathHunter GPCR internalization assay); assay type: cell-based; conditions: maximal concentration
[10] = test system: C57BL/6J mice; assay: Conditioned place preference; conditions: mouse, in vivo
Method: On day 1 (preconditioning day), mice were placed in the central chamber and allowed to explore freely for 30 minutes. Time spent in each compartment was used to estimate baseline chamber preferences and mice showing specific chamber bias more than 70% were not studied further. On days 2-9 (conditioning days) mice were injected with either vehicle or drug and paired with either the white mesh or the black rod chambers. All mice received vehicle on days 2, 4, 6, 8 and drug on days 3, 5, 7, 9. On day 10 (test day), mice were again placed in the central chamber as on day 1 and allowed to explore freely for 30 minutes. Time spent in each chamber was expressed as percentage preference.

[11] = Metabolism by mouse liver microsomes; assay type: in vitro ADME; conditions: over one hour
Method: Metabolism experiments were performed as described previously. In brief, pooled microsomes from male mouse liver (CD-1) were purchased (Sigma Aldrich) and stored at −75° C. until required. NADPH was purchased (Carl Roth) and stored at −8° C. The incubation reactions were carried out in polyethylene caps (Eppendorf, 1.5 mL) at 37° C. […] The final incubation volume was 0.5 mL. Microsomal reactions were initiated by addition of 50 μL of enzyme cofactor solution NADPH (final concentration of 1 mM). At 0, 15, 30 and 60 min the enzymatic reactions were terminated by addition of 500 μL of ice-cold acetonitrile (containing 8 μM internal standard), and precipitated protein was removed by centrifugation (15,000 rcf for 3 min). The supernatant was analyzed by HPLC/MS (binary solvent system, eluent acetonitrile in 0.1% aqueous formic acid, 10-40% acetonitrile in 8 min, 40-95% acetonitrile in 1 min, 95% acetonitrile for 1 min, flow rate of 0.3 mL/min). The experiments were repeated in three independent experiments. […] Substrate remaining and metabolite formation was calculated as a mean value+SEM of three independent experiments by comparing AUC of metabolites and substrate after predetermined incubation time to AUC of substrate at time 0, estimating a similar ionization rate, corrected by a factor calculated from the AUC of internal standard at each time point.

[12] = test system: C57BL/6J mice; assay: Tail-flick assay; conditions: mouse, in vivo
[13] = test system: C57BL/6J mice; assay: Hot-plate analgesia
[14] = test system: C57BL/6J mice; assay: Cataleptic effect (bar test); conditions: PZM21 20 mg/kg
Method: Drug induced catalepsy was measured in mice using the bar test, which includes a horizontally placed 3 mm diameter wooden bar fixed 4 cm above the floor. […] To measure catalepsy, both forepaws were gently placed on the bar and the length of time during which each mouse remained in the initial position was measured. The effect was measured at 15, 30 and 90 minutes after drug injection. Maximum cut-off time for each challenge was 90 seconds.

[15] = molecular target: T3, μOR; assay: Calcium release (FLIPR); assay type: cell-based; parameters: expressed in transfected cells
Method: Calcium release was measured using a FLIPR^TETRA fluorescence imaging plate reader (Molecular Devices). Calcium release experiments were run in parallel to Gi/o Glosensor experiments with the same HEKT cells transfected with μOR, except cells for FLIPR were plated in poly-lysine coated 384-well black clear bottom cell culture plates. Cells were incubated at 37° C. with 5% CO2 overnight, and next day, media was decanted and replaced with Fluo-4 direct calcium dye (Life Technologies) made up in HBSS with 20 mM HEPES, pH 7.4. Dye was incubated for 1 hour at 37° C. Afterwards, cells were equilibrated to room temperature, and fluorescence in each well was read for the initial 10 seconds to establish a baseline. Afterwards, 10 μL of drug (3×) was added per well and the maximum-fold increase in fluorescence was determined as fold-over-baseline. Drug solutions used for the FLIPR assay were exactly the same as used for Gi/o Glosensor experiments. To activate endogenous Gq-coupled receptors as a positive control for calcium release, TFLLR-NH2 (10 μM, PAR-1 selective agonist) was used.

[16] = test system: C57BL/6J mice; assay: Open field locomotor response; conditions: PZM21 20 mg/kg, morphine 10 mg/kg
[17] = test system: C57BL/6J mice; assay: Accumulated fecal boli quantification (constipation); conditions: PZM21 20 mg/kg, morphine 10 mg/kg

T1 sequence (P41145 whole entry): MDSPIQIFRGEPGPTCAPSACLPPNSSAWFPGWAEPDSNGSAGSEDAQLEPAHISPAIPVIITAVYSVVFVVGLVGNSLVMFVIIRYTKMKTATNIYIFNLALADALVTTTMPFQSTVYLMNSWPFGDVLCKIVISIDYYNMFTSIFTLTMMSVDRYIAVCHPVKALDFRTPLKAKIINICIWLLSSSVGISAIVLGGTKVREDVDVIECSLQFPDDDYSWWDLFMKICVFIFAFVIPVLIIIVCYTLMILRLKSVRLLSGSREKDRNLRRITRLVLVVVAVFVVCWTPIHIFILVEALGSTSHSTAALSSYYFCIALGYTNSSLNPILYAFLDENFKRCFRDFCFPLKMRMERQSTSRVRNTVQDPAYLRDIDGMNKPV

For `C[C@@H](Cc1ccsc1)NC(=O)NC[C@H](Cc1ccc(O)cc1)N(C)C` [PZM21, 1-[(S)-2-(Dimethylamino)-3-(4-hydroxyphenyl)propyl]-3-((S)-1-(thiophen-3-yl)propan-2-yl)urea], the Ki [1] was 18 nM, the Ki [2] was 506 nM and the “Gi/o activation, μOR agonist activity (in words)” value [3] was “robust μOR agonist activity”. The EC50 [4] was 1900 nM, the “KOR agonist activity (in words)” value [5] was “no detectable” and the “mode of action at KOR” value ([5]; antagonist mode) was “antagonist”. For the same compound, the “β-arrestin2 recruitment (in words)” value [6] was “undetectable; also recorded: minimal recruitment of β-arrestin2; also recorded: no detectable”, the “arrestin recruitment with over-expressed GRK2 (in words)” value [7] was “weak arrestin recruitment efficacy compared to DAMGO and even to morphine” and the signaling bias ([7]; operational model, DAMGO as reference) was “undistinguishable from TRV130”. For the same compound, the “agonism against 316 other GPCRs” value [8] was “no potent activity was confirmed”, the μOR internalization [9] was “minimal level of μOR internalization compared to DAMGO and morphine” and the conditioned place preference [10] was “does not induce a conditioned place preference response”. The “metabolism by mouse liver microsomes” value [11] was 8%, the “analgesic effect in tail-flick assay” value [12] was “no activity; also recorded: no analgesic effect” and the duration of analgesia ([13]; hot plate) was “up to 180 minutes”. For the same compound, the “percent maximal possible effect (% MPE)” value ([13]; hot plate, highest dose of drug tested, 15 minutes after administration) was 87%, the “analgesia in hot-plate assay (in words)” value ([13]; mouse, subcutaneous) was “dose-dependent analgesia” and the cataleptic behavior [14] was “does not induce cataleptic behavior”. For the same compound, the calcium release [15] was “no activity was observed”, the open field locomotion [16] was “does not induce open field locomotion; also recorded: no apparent effect on locomotion versus vehicle” and the constipation effect [17] was “reduced constipatory effects as compared to morphine; also recorded: substantially less than morphine”.
